Assay results taken from patent publication US8324198B1, “Monocarbams” (Pfizer Inc., priority 2008, dated 2012).

Key:
P. aeruginosa 1091-05 [1] = assay: Murine respiratory tract infection model against P. aeruginosa 1091-05 (PD50); assay type: in vivo
Description: For this model, C3H/HeN mice were immunosuppressed with cyclophosphamide given orally at 150 mg/kg and 100 mg/kg on days −4 and −1 relative to challenge, respectively. Mice were anesthetized with isoflurane (5% in oxygen) and the bacterial inoculum was given to each mouse via intranasal instillation in a 40 μL volume (˜2.8×10^3 cfu per mouse). Mice were dosed with compound administered via subcutaneous injection beginning at four hours post-challenge, and continuing for two days of BID therapy.
PD50 is a measure of the ability of a compound to protect mice from a lethal infection.

P. aeruginosa 1091-05 [2] = assay: In vitro MIC, P. aeruginosa 1091-05; assay type: cell-based
[3] = system: Acinetobacter baumanii 3167; assay: In vitro MIC, Acinetobacter baumanii 3167; assay type: cell-based; conditions: strain 3167, resistant to cephalosporins
Source text: (§1) Culture collection strain 1045-06 is resistant to several classes of known antimicrobial agents including carbapenems, aminoglycosides and fluoroquinolones, while strains 1000-02 and 3167 are resistant to cephalosporins. Strain PA0200 is a derivative of laboratory strain PAO1 that lacks a functional MexAB-oprM efflux pump.

[4] = system: Klebsiella pneumoniae 1000-02; assay: In vitro MIC, Klebsiella pneumoniae 1000-02; assay type: cell-based; conditions: strain 1000-02, resistant to cephalosporins
Source text: as §1

[5] = system: Pseudomonas aeruginosa 1045-06; assay: In vitro MIC, Pseudomonas aeruginosa 1045-06; assay type: cell-based; conditions: strain 1045-06, resistant to carbapenems, aminoglycosides and fluoroquinolones
Source text: as §1

## C[C@H](O)Cn1c(-c2cc(=O)c(O)c[nH]2)nn(S(=O)(=O)NC(=O)N2C[C@H](NC(=O)/C(=N\OC(C)(C)C(=O)[O-])c3csc(N)n3)C2=O)c1=O.C[C@H](O)Cn1c(-c2cc(=O)c(O)c[nH]2)nn(S(=O)(=O)NC(=O)N2C[C@H](NC(=O)/C(=N\OC(C)(C)C(=O)[O-])c3csc(N)n3)C2=O)c1=O.[Na+].[Na+] [Example 7, 2-({[(1Z)-1-(2-amino-1,3-thiazol-4-yl)-2-({(3S)-1-[({3-(5-hydroxy-4-oxo-1,4-dihydropyridin-2-yl)-4-[(2S)-2-hydroxypropyl]-5-oxo-4,5-dihydro-1H-1,2,4-triazol-1-yl}sulfonyl)carbamoyl]-2-oxoazetidin-3-yl}amino)-2-oxoethylidene]amino}oxy)-2-methylpropanoic acid, disodium salt]
P. aeruginosa 1091-05 [1]; immunosuppressed C3H/HeN mice, intranasal challenge, subcutaneous BID for two days from 4 h post-challenge, lethality over ten days, disodium salt
  RTI PD50 vs. Pa 1091-05 (95% confidence interval): 15.7 (8.45-22.96) mg/kg
P. aeruginosa 1091-05 [1]; murine respiratory tract infection model, P. aeruginosa 1091-05
  Efficacy relative to Comparative Example A (PD50, 95% confidence intervals): significantly more efficacious relative to Comparative Example A
P. aeruginosa 1091-05 [2]
  Pa 1091-05 MIC: 125 µg/mL
[3]
  MIC Acinetobacter baumanii 3167: 1000 µg/mL
[4]
  MIC Klebsiella pneumoniae 1000-02: 250 µg/mL
[5]
  MIC Pseudomonas aeruginosa 1045-06: 250 µg/mL
